For one experiment, the system named is Zymoseptoria tritici. In words: Liquid culture, Zymoseptoria tritici (Septoria tritici), Septoria leaf blotch, 4-5 days. The format is cell-based. The conditions noted are these: Zymoseptoria tritici, read-out: % reduction fungal growth. As for the experimental part:
Mycelia fragments or conidia suspensions of a fungus, prepared either freshly from liquid cultures of the fungus or from cryogenic storage, were directly mixed into nutrient broth.
A stock solution for compound of Formula I(a) and Formula I(b) was produced in DMSO (max. 10 mg/ml), which was diluted with water plus 0.025% Tween®20 to produce a 10× concentrated sample and 10 μl of this solution was pipetted into a microtiter plate (96-well format). The nutrient broth containing the fungal spores/mycelia fragments was then added to give an end concentration of the tested compound. The test plates were incubated in the dark at 24 °C and 96% rh. The inhibition of fungal growth was determined photometrically after 2-7 days, depending on the pathosystem, and percent antifungal activity relative to the untreated check was calculated.
The effect of the test compound (Formula I(a), I(b) and Lipopeptin A) was tested against the following fungi under the conditions as outlined above and specifically herein below:
Zymoseptoria tritici (Septoria tritici)/liquid culture (Septoria leaf blotch) Conidia of the fungus from cryogenic storage were directly mixed into nutrient broth (PDB potato dextrose broth). The inhibition of growth was determined photometrically 4-5 days after application.

The subject of another experiment is Pyrenophora teres. In words: Leaf disc preventative test on barley, Pyrenophora teres (Net Blotch), 5-7 days after application. In kind it is in vivo. The conditions noted are these: Table 5. As for the experimental part:
Leaf disks or leaf segments of various plant species were cut from plants grown in the greenhouse. The cut leaf disks, or segments were placed in multiwell plates (24-well format) onto water agar. The leaf disks were sprayed with a test solution before inoculation with the fungal spores. Compounds to be tested were prepared as DMSO solutions (max. 10 mg/ml) which were diluted to the appropriate concentration with water plus 0.025% Tween® 20 just before spraying. The inoculated leaf disks or segments were incubated under defined conditions (temperature, relative humidity, light, etc.) according to the respective test system. A single evaluation of disease level was carried out by visual evaluation 3-9 days days after inoculation, depending on the pathosystem as indicated below. Percent disease control relative to the untreated check leaf disks or segments was then calculated.
Pyrenophora teres/Barley/Leaf Disc Preventative (Net Blotch)
Barley leaf segments cv. Hasso were placed on agar in a multiwell plate (24-well format) and sprayed with the formulated test compound diluted in water. The leaf segments were inoculated with a spore suspension of the fungus 2 days after application. The inoculated leaf segments were incubated at 20 °C and 65% rh under a light regime of 12 h light/12 h darkness in a climate cabinet and the activity of a compound was assessed as disease control compared to untreated when an appropriate level of disease damage appears in untreated check leaf segments (5-7 days after application).

The next experiment deals with Puccinia recondita. In words: Leaf disc mixture assay with malonomicin, Puccinia recondita, curative spray timing, 8 dpi. In kind it is in vivo, Puccinia recondita on wheat (cultivar Kanzler). On the procedure: A stock solution for the lipopeptide compound of Formula I(a) was produced in DMSO (max. 10 mg/ml). Malonomicin was produced according to Law et al, 2018 (Nature Catalys is |VOL 1|DECEMBER 2018|977-984). A stock solution of malonomicin was produced in water plus 0.025% Tween®20.
Assays to test efficacy of mixtures of compound of Formula I(a) in combination with malonomicin on the control of fungal pathogens in a leaf disc assay were designed for two 24well plates.
Table 22 and Table 23. Outline of 24well testplate (1) and testplate (2) including concentration of compounds sprayed per well. The upper number in the cell indicates compound of Formula I(a) concentration (ppm), the lower number malonomicin concentration (ppm). Column (1) holds a dilution series of compound of Formula I(a), row (2-D) hold a dilution series of malonomicin. Well 2-D-(1) represents an untreated check. This design was applied for tests including Puccinia recondita (EPPO code: PUCCRE) with preventive and curative spray timing.
A first set of master plates with 1× concentrated spray solution of the lipopeptide compound of Formula I(a) stock diluted in water with concentrations according to table 22, table 23, table 25 or table 26, respectively, was prepared. Each well contained 2% DMSO and 0.025% Tween20. Accordingly, a second set of master plates with 1× concentrated malonomicin stock diluted in water was prepared. Each well of the second set contained 0.025% Tween20. Leaf segments placed on agar in 24well plates were sprayed with 8 μl of solution from the master plate containing the lipopeptide compound of Formula I(a) and the leaf segments were let to dry, followed 2 hours later by 8 μl of solution from the master plate containing malonomicin. After second sprays had dried, leaf segments were infected with fungal spores to obtain a preventive application timing. Alternatively, leaf segments infected one day before spray of the compounds were used, resulting in a curative spray timing. In addition, several plates were produced where leaf segments were sprayed 2× in absence of test compound (with only DMSO and Tween20), representing the untreated check samples. For each leaf segment percent leaf coverage of disease symptoms was assessed. Percent leaf coverage reduction relative to the untreated check was calculated. Efficacy of the mixtures was tested in duplicate and on different fungal species. Reported efficacy values are the average of two replicate results.
Puccinia recondita (EPPO Code: PUCCRE) with Curative Spray Timing.
Wheat (cultivar Kanzler) leaf segments are placed on agar in multiwell plates (24-well format). The leaf disks are then inoculated with a spore suspension of the fungus. One day after inoculation the test solution is sprayed (8 ul per well). After appropriate incubation the activity of a compound is assessed 8 dpi (days after inoculation) as curative fungicidal activity

Values joined by “and” are separate entries in the source; they are usually repeats but may differ in a detail not shown here. Equal values may be shown once. Read-outs that look alike come from different tables or passages of the source. Numbered stars: 1 amine (or outer) side, 2 acyl side, 3 side chain; on linkers, the order of the positions; unused ones are H or OH. Bridge positions count the residues as written; N and C are the ends. Square brackets hold non-standard residues; d marks the D form. Peptide text beside a SMILES is read from it. * marks the point of attachment. Tridecanoyl(12-Me) = CC(C)CCCCCCCCCCC(=O)*; X1 = NC(=O)CC(O)C(N[*:1])C(=O)[*:2]; NMeF = CN[CH](Cc1ccccc1)C(=O)O; NMeN = CN[CH](CC(N)=O)C(=O)O; X2 = CCC(C)CCCCCCCCCCC(=O)*

In the case of `CCC(C)CCCCCCCCCCC(=O)NC1C(=O)NC(CC(=O)O)C(=O)NC(C(O)CC(N)=O)C(=O)NC(CO)C(=O)N(C)C(CC(N)=O)C(=O)N(C)C(Cc2ccccc2)C(=O)NC(CCC(N)=O)C(=O)NC(CCC(=O)O)C(=O)OC1C` (stereo not drawn) [Formula I(b)] (X2-TD[X1]S[NMeN][NMeF]QE; ester 1-C; configuration not given here), the inhibition of growth at 0.41 ppm in the experiment with Zymoseptoria tritici (Table 2) and in the experiment with Zymoseptoria tritici (Table 3) was 0% throughout. The inhibition of growth at 1.2 ppm in the experiment with Zymoseptoria tritici (Table 2) and in the experiment with Zymoseptoria tritici (Table 3) was 0% each time. Also, the inhibition of growth at 3.7 ppm in the experiment on Zymoseptoria tritici (Table 2) and in the experiment with Zymoseptoria tritici (Table 3) was 0% in each case. For the same compound, the inhibition of growth at 11 ppm in the experiment with Zymoseptoria tritici (Table 2) turned out to be 50%; in the experiment on Zymoseptoria tritici (Table 3), 90%. Also, the inhibition of growth at 33 ppm in the experiment on Zymoseptoria tritici (Table 2) stood at 70%; in the experiment with Zymoseptoria tritici (Table 3) it was 90%. The values for the inhibition of growth at 100 ppm with Zymoseptoria tritici (Table 2) and with Zymoseptoria tritici (Table 3) were 70% and 90%, respectively. Also, the “% reduction of fungal growth” value is 0% with Pyrenophora teres (0.82 ppm); 0% with Pyrenophora teres (2.5 ppm); 0% in the experiment on Pyrenophora teres (7.4 ppm); 0% in the experiment with Pyrenophora teres (22 ppm); 90% in the experiment with Pyrenophora teres (67 ppm); 90% with Pyrenophora teres (200 ppm).
For `NC[C@@H]1NC(=O)C(C(=O)CC(NC(=O)[C@@H](N)CO)(C(=O)O)C(=O)O)=C1O` [malonomicin, {[(2S)-2-amino-3-hydroxypropanoyl]amino}{2-[(5S)-5-(aminomethyl)-4-hydroxy-2-oxo-2,5-dihydro-1H-pyrrol-3-yl]-2-oxoethyl}malonic acid], the “control of fungal growth (% reduction of symtoms on the leaf segment as compared to untreated check)” value in the experiment on Puccinia recondita (column (2): malonomicin 200 ppm, compound of Formula I(a) lines 1-A to 2-D = 200, 100, 50, 25, 12.5, 6.25, 3.13, 0 ppm) was 100%; in the experiment on Puccinia recondita (column (3): malonomicin 20 ppm, compound of Formula I(a) lines 1-A to 2-D = 200, 100, 50, 25, 12.5, 6.25, 3.13, 0 ppm), 100%; with Puccinia recondita (column (4): malonomicin 6.67 ppm, compound of Formula I(a) lines 1-A to 2-D = 200, 100, 50, 25, 12.5, 6.25, 3.13, 0 ppm), 100%; with Puccinia recondita (column (5): malonomicin 2.22 ppm, compound of Formula I(a) lines 1-A to 2-D = 200, 100, 50, 25, 12.5, 6.25, 3.13, 0 ppm), 70%; in the experiment with Puccinia recondita (column (6): malonomicin 0.74 ppm, compound of Formula I(a) lines 1-A to 2-D = 200, 100, 50, 25, 12.5, 6.25, 3.13, 0 ppm), 35%.
Consider `CC(C)CCCCCCCCCCC(=O)NC1C(=O)NC(CC(=O)O)C(=O)NC(C(O)CC(N)=O)C(=O)NC(CO)C(=O)N(C)C(CC(N)=O)C(=O)N(C)C(Cc2ccccc2)C(=O)NC(CCC(N)=O)C(=O)NC(CCC(=O)O)C(=O)OC1C` (stereo not drawn) [Formula I(a)] ({Tridecanoyl(12-Me)}-TD[X1]S[NMeN][NMeF]QE; ester 1-C; configuration not given here), for which the inhibition of growth at 0.41 ppm in the experiment on Zymoseptoria tritici (Table 2) and in the experiment on Zymoseptoria tritici (Table 3) was 0% in each case. Further, the inhibition of growth at 1.2 ppm in the experiment with Zymoseptoria tritici (Table 2) and in the experiment on Zymoseptoria tritici (Table 3) was 0% in each case. The inhibition of growth at 3.7 ppm with Zymoseptoria tritici (Table 2) and in the experiment on Zymoseptoria tritici (Table 3) was 0% throughout. In addition, the inhibition of growth at 11 ppm in the experiment with Zymoseptoria tritici (Table 2) and in the experiment with Zymoseptoria tritici (Table 3) was 70% in each case. The inhibition of growth at 33 ppm in the experiment on Zymoseptoria tritici (Table 2) worked out at 100%; with Zymoseptoria tritici (Table 3) it was 90%. For the same compound, the inhibition of growth at 100 ppm with Zymoseptoria tritici (Table 2) is 100%; in the experiment with Zymoseptoria tritici (Table 3), 90%. The “% reduction of fungal growth” value with Pyrenophora teres (0.82 ppm) is given as 0%; in the experiment with Pyrenophora teres (2.5 ppm), 0%; in the experiment with Pyrenophora teres (7.4 ppm), 0%; with Pyrenophora teres (22 ppm) it was 0%; with Pyrenophora teres (67 ppm), 60%; in the experiment with Pyrenophora teres (200 ppm) it was 80%. Further, in the experiment on Puccinia recondita (column (1): compound of Formula I(a) alone, lines 1-A to 2-C = 200, 100, 50, 25, 12.5, 6.25, 3.13 ppm), the “control of fungal growth (% reduction of symtoms on the leaf segment as compared to untreated check)” value is 0% and 10%.

For the origin of these results see patent publication US20260347403A1, “FUNGICIDAL COMPOUND” (priority 2022, published 2026).
